Each compound was assayed against TNF-α converting enzyme (TACE) (Homo sapiens, UniProt P78536) (assay: TACE inhibition (fluorescent peptidyl substrate)). Conditions: IC 50 nM (In Vitro Inhibition of TACE), Table 15.
Sequence of TNF-α converting enzyme (TACE) (P78536 215-824, species assumed): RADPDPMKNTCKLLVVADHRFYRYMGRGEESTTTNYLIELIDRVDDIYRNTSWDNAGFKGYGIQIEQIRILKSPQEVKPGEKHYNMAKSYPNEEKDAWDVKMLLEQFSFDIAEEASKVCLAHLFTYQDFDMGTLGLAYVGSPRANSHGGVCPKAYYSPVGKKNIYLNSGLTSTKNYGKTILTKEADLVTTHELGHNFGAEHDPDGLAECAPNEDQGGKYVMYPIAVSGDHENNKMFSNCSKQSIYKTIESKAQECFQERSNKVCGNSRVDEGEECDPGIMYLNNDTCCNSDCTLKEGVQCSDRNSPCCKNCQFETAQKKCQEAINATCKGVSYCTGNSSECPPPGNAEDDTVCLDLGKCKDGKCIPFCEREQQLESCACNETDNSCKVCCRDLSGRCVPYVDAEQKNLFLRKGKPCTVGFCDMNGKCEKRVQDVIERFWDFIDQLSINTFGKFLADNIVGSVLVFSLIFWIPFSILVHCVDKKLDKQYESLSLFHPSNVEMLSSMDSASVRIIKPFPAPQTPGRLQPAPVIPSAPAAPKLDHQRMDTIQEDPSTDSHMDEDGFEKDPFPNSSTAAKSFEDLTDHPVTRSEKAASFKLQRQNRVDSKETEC
Format: biochemical
`CC#CCOc1ccc(S(=O)(=O)N[C@H](CCCN)C(=O)NO)cc1` [Example 314, (2R)-5-Amino-2-({[4-(but-2-ynyloxy)phenyl]sulfonyl}amino)-N-hydroxypentanamide] showed an IC50 of 25 nM.
In the case of `CC#CCOc1ccc(S(=O)(=O)N[C@H](Cc2ccc(F)cc2)C(=O)NO)cc1` [Example 316, (2R)-2-({[4-(But-2-ynyloxy)phenyl]sulfonyl}amino)-3-(4-fluorophenyl)-N-hydroxypropanamide], the IC50 is reported as 4 nM.
`CC#CCOc1ccc(S(=O)(=O)N[C@H](Cc2ccc([N+](=O)[O-])cc2)C(=O)NO)cc1` [Example 317, (2R)-2-({[4-(But-2-ynyloxy)phenyl]sulfonyl}amino)-N-hydroxy-3-(4-nitrophenyl)propanamide] gave an IC50 of 6.5 nM.
With `CC#CCOc1ccc(S(=O)(=O)N2CCCC[C@@H]2C(=O)NO)cc1` [Example 318, (2R)-1-{[4-(But-2-ynyloxy)phenyl]sulfonyl}-N-hydroxypiperidine-2-carboxamide] the IC50 was 11.9 nM.
For `CC#CCOc1ccc(S(=O)(=O)N[C@H](CO)C(=O)NO)cc1` [Example 319, (2R)-2-({[4-(But-2-ynyloxy)phenyl]sulfonyl}amino)-N,3-dihydroxypropanamide], the IC50 was 10.5 nM.
With `CC#CCOc1ccc(S(=O)(=O)N[C@H](COCc2ccccc2)C(=O)NO)cc1` [Example 320, (2R)-3-(Benzyloxy)-2-({[4-(but-2-ynyloxy)phenyl]sulfonyl}amino)-N-hydroxypropanamide] the IC50 was 7.4 nM.
`CC#CCOc1ccc(S(=O)(=O)N[C@H](Cc2cccs2)C(=O)NO)cc1` [Example 321, (2R)-2-({[4-(But-2-ynyloxy)phenyl]sulfonyl}amino)-N-hydroxy-3-thien-2-yl-propanamide] was tested, and the IC50 was 4.7 nM.
`CC#CCOc1ccc(S(=O)(=O)N[C@@H](C(=O)NO)[C@H](C)O)cc1` [Example 322, (2R,3S)-2-({[4-(But-2-ynyloxy)phenyl]sulfonyl}amino)-N,3-dihydroxybutanamide] showed an IC50 of 11.8 nM.
`CC#CCOc1ccc(S(=O)(=O)N[C@@H](C(=O)NO)[C@H](C)OCc2ccccc2)cc1` [Example 323, (2R,3S)-3-(Benzyloxy)-2-({[4-(but-2-ynyloxy)phenyl]sulfonyl}amino)-N-hydroxybutanamide] gave an IC50 of 17.6 nM.
For `CC#CCOc1ccc(S(=O)(=O)N2CSC[C@@H]2C(=O)NO)cc1` [Example 324, (4S)-3-{[4-(But-2-ynyloxy)phenyl]sulfonyl}-N-hydroxy-1,3-thiazolidine-4-carboxamide], the IC50 was 14.7 nM.
In the case of `CC#CCOc1ccc(S(=O)(=O)N2Cc3ccccc3C[C@@H]2C(=O)NO)cc1` [Example 325, (3R)-2-{[4-(But-2-ynyloxy)phenyl]sulfonyl}-N-hydroxy-1,2,3,4-tetrahydroisoquinoline-3-carboxamide], the IC50 is reported as 6.9 nM.
Work on `CC#CCOc1ccc(S(=O)(=O)N[C@H](Cc2ccc(OCc3ccccc3)cc2)C(=O)NO)cc1` [Example 326, (2R)-3-[4-(Benzyloxy)phenyl]-2-({[4-(but-2-ynyloxy)phenyl]sulfonyl}amino)-N-hydroxypropanamide] yielded an IC50 of 58.6 nM.
`CC#CCOc1ccc(S(=O)(=O)N[C@@H](C(=O)NO)c2ccccc2)cc1` [Example 327, (2R)-2-({[4-(But-2-ynyloxy)phenyl]sulfonyl}amino)-N-hydroxy-2-phenylethanamide] was tested, and the IC50 was 5.5 nM.
Work on `CC#CCOc1ccc(S(=O)(=O)N[C@H](CCCNC(C)=O)C(=O)NO)cc1` [Example 328, (2R)-5-(Acetylamino)-2-({[4-(but-2-ynyloxy)phenyl]sulfonyl}amino)-N-hydroxypentanamide] yielded an IC50 of 6.26 nM.
`CC#CCOc1ccc(S(=O)(=O)N[C@H](CCCNC(=O)c2ccc3[nH]cnc3c2)C(=O)NO)cc1` [Example 329, N-[(4R)-4-({[4-(But-2-ynyloxy)phenyl]sulfonyl}amino)-5-(hydroxyamino)-5-oxopentyl]-1H-benzimidazole-5-carboxamide] gave an IC50 of 6.88 nM.
Work on `CC#CCOc1ccc(S(=O)(=O)N[C@H](CCCNC(=O)c2ccccc2)C(=O)NO)cc1` [Example 330, N-[(4R)-4-({[4-(But-2-ynyloxy)phenyl]sulfonyl}amino)-5-(hydroxyamino)-5-oxopentyl]benzamide] yielded an IC50 of 3.58 nM.
In the case of `CC#CCOc1ccc(S(=O)(=O)N[C@H](CCCNC(=O)c2ccc(Br)cc2)C(=O)NO)cc1` [Example 331, 4-Bromo-N-[(4R)-4-({[4-(but-2-ynyloxy)phenyl]sulfonyl}amino)-5-(hydroxyamino)-5-oxopentyl]benzamide], the IC50 is reported as 5.32 nM.
With `CC#CCOc1ccc(S(=O)(=O)N[C@H](CCCNC(=O)CCC)C(=O)NO)cc1` [Example 332, (2R)-2-({[4-(But-2-ynyloxy)phenyl]sulfonyl)amino)-5-(butyrylamino)-N-hydroxypentanamide] the IC50 was 5.13 nM.
For `CC#CCOc1ccc(S(=O)(=O)N[C@H](CCCNC(=O)c2sccc2Cl)C(=O)NO)cc1` [Example 333, N-[(4R)-4-({[4-(But-2-ynyloxy)phenyl]sulfonyl}amino)-5-(hydroxyamino)-5-oxopentyl]-3-chlorothiophene-2-carboxamide], the IC50 was 4.21 nM.
For `CC#CCOc1ccc(S(=O)(=O)N[C@H](CCCNC(=O)c2ccc(Cl)cc2)C(=O)NO)cc1` [Example 334, N-[(4R)-4-({[4-(But-2-ynyloxy)phenyl]sulfonyl}amino)-5-(hydroxyamino)-5-oxopentyl]-4-chlorobenzamide], the IC50 was 4.7 nM.
For `CC#CCOc1ccc(S(=O)(=O)N[C@H](CCCNC(=O)C2CCCCC2)C(=O)NO)cc1` [Example 335, N-[(4R)-4-({[4-(But-2-ynyloxy)phenyl]sulfonyl}amino)-5-(hydroxyamino)-5-oxopentyl]cyclohexanecarboxamide], the IC50 was 6.5 nM.
`CC#CCOc1ccc(S(=O)(=O)N[C@H](CCCNC(=O)c2c(C)noc2C)C(=O)NO)cc1` [Example 338, N-[(4R)-4-({[4-(But-2-ynyloxy)phenyl]sulfonyl)amino)-5-(hydroxyamino)-5-oxopentyl]-3,5-dimethylisoxazole-4-carboxamide] was tested, and the IC50 was 3.73 nM.
`CC#CCOc1ccc(S(=O)(=O)N[C@H](CCCNC(=O)CCc2ccccc2)C(=O)NO)cc1` [Example 339, (2R)-2-({[4-(But-2-ynyloxy)phenyl]sulfonyl}amino)-N-hydroxy-5-[(3-phenylpropanoyl)amino]pentanamide] was tested, and the IC50 was 4.6 nM.
Compound `CC#CCOc1ccc(S(=O)(=O)N[C@H](CCCNC(=O)c2ccncc2)C(=O)NO)cc1` [Example 340, N-[(4R)-4-({[4-(But-2-ynyloxy)phenyl]sulfonyl}amino)-5-(hydroxyamino)-5-oxopentyl]isonicotinamide] has an IC50 of 6.67 nM.
`CC#CCOc1ccc(S(=O)(=O)N[C@H](CCCNC(=O)c2cccnc2)C(=O)NO)cc1` [Example 341, N-[(4R)-4-({[4-(But-2-ynyloxy)phenyl]sulfonyl}amino)-5-(hydroxyamino)-5-oxopentyl]nicotinamide] showed an IC50 of 4.88 nM.
With `CC#CCOc1ccc(S(=O)(=O)N[C@H](CCCNC(=O)c2ccccc2OC)C(=O)NO)cc1` [Example 342, N-[(4R)-4-({[4-(But-2-ynyloxy)phenyl]sulfonyl}amino)-5-(hydroxyamino)-5-oxopentyl]-2-methoxybenzamide] the IC50 was 4.54 nM.
`CC#CCOc1ccc(S(=O)(=O)N[C@H](CCCNC(=O)c2ccc(OC)cc2)C(=O)NO)cc1` [Example 343, N-[(4R)-4-({[4-(But-2-ynyloxy)phenyl]sulfonyl}amino)-5-(hydroxyamino)-5-oxopentyl]-4-methoxybenzamide] gave an IC50 of 3.54 nM.
For `CC#CCOc1ccc(S(=O)(=O)N[C@H](CCCNC(=O)Cc2ccc([N+](=O)[O-])cc2)C(=O)NO)cc1` [Example 344, (2R)-2-({[4-(But-2-ynyloxy)phenyl]sulfonyl}amino)-N-hydroxy-5-{[2-(4-nitrophenyl)acetyl]amino}pentanamide], the IC50 was 5.24 nM.
Compound `CC#CCOc1ccc(S(=O)(=O)N[C@H](CCCNC(=O)Cc2ccccc2)C(=O)NO)cc1` [Example 345, (2R)-2-({[4-(But-2-ynyloxy)phenyl]sulfonyl}amino)-N-hydroxy-5-[(2-phenylacetyl)amino]pentanamide] has an IC50 of 4.43 nM.
`CC#CCOc1ccc(S(=O)(=O)N[C@H](CCCNC(=O)c2cnc3ccccc3c2)C(=O)NO)cc1` [Example 346, N-[(4R)-4-({[4-(But-2-ynyloxy)phenyl]sulfonyl}amino)-5-(hydroxyamino)-5-oxopentyl]quinoline-3-carboxamide] gave an IC50 of 4.63 nM.
`CC#CCOc1ccc(S(=O)(=O)N[C@H](CCCNC(=O)c2ccsc2)C(=O)NO)cc1` [Example 347, N-[(4R)-4-({[4-(But-2-ynyloxy)phenyl]sulfonyl}amino)-5-(hydroxyamino)-5-oxopentyl]thiophene-3-carboxamide] showed an IC50 of 3.15 nM.
`CC#CCOc1ccc(S(=O)(=O)N[C@H](CCCNC(=O)/C=C/c2ccccc2)C(=O)NO)cc1` [Example 348, (E)-N-[(4R)-4-({[4-(But-2-ynyloxy)phenyl]sulfonyl}amino)-5-(hydroxyamino)-5-oxopentyl]-3-phenylprop-2-enamide] showed an IC50 of 6.25 nM.
In the case of `CC#CCOc1ccc(S(=O)(=O)N[C@H](CCCCNC(=O)c2ccc3[nH]cnc3c2)C(=O)NO)cc1` [Example 349, N-[(5R)-5-({[4-(But-2-ynyloxy)phenyl]sulfunyl}amino)-6-(hydroxyamino)-6-oxohexyl]-1H-benzimidazole-5-carboxamide], the IC50 is reported as 9.41 nM.
Work on `CC#CCOc1ccc(S(=O)(=O)N[C@H](CCCCNC(=O)c2ccccc2)C(=O)NO)cc1` [Example 350, N-[(5R)-5-({[4-(But-2-ynyloxy)phenyl]sulfonyl}amino)-6-(hydroxyamino)-6-oxohexyl]benzamide] yielded an IC50 of 6.28 nM.

Same assay, conditions: read-out: IC 50 nM (In Vitro Inhibition of TACE); Table 15
`CC#CCOc1ccc(S(=O)(=O)N[C@H](Cc2ccc(F)c(F)c2)C(=O)NO)cc1` [Example 315, (2R)-2-({[4-(But-2-ynyloxy)phenyl]sulfonyl}amino)-3-(3,4-digluorophenyl)-N-hydroxypropanamide] showed an IC50 of 5.7 nM.
In the case of `CC#CCOc1ccc(S(=O)(=O)N[C@H](CCCNC(=O)c2cc(C)oc2C)C(=O)NO)cc1` [Example 337, N-[(4R)-4-({[4-(But-2-ynyloxy)phenyl]sulfonyl}amino)-5-(hydroxyamino)-5-oxopentyl]-2,5-dimethyl-3-furamide], the IC50 is reported as 4.2 nM.
